# Data: US8735584B2 (Merck Patent GmbH, priority 2008, dated 2014)
# Assays:
# [1] = target: T1, ABL (Homo sapiens, UniProt P00519); assay: Desktop Profiler kinase panel, ABL; assay type: biochemical; settings: for inhibition at 10 µM: 10 micromolar concentration of the compound, read-out: Percent Inhibition ABL; for inhibition at 1 µM: 1 micromolar concentration of the compound
# T1 construct: purchased Caliper Life Sciences
# Protocol: (§1) The Aurora assays described here are performed on two Caliper Life Sciences systems: the LC3000 and the Desktop Profiler. These provide data on enzyme activity via measurement of the relative amounts of phosphorylated or unphosphorylated fluorescently labelled substrate peptide at the end of an enzymatic reaction. These different states of peptide are resolved by applying a potential difference across the sample. The presence of the charged phosphate group on the product (as opposed to the substrate) causes a different peptide mobility between the two peptides. This is visualized by excitation of the fluorescent label on the substrate and product peptides and represented as peaks within the analysis software.
# (§2) The Desktop Profiler utilizes the same principle as the LC3000 for calculating percentage conversion of a substrate to product. Caliper Life Sciences provides proprietary flash frozen pre-made 384 well plates containing selected kinases. Each column in the 384 well plate contains a particular selected kinase. A second plate, the ‘substrate plate’ contains a mix of fluorescently labeled peptide substrate and ATP. These are arranged in columns so that transfer for substrate plate to enzyme plate provides the correct enzyme with the correct substrate/ATP concentration. Compounds are added to a thawed enzyme plate in the desired format, in single concentrations. Reactions are initiated by transfer of the substrate/ATP mix from the substrate plate. The enzyme plate is incubated for 90 mins at 25 C. The reaction is stopped by addition of 70 ul of Stop Buffer (100 mM HEPES pH 7.5, 0.015% Brij-35, 10 mM EDTA (Sigma, E7889)).
# (§3) Reading of the plate in the Profiler is identical to the LC3000, and the ratio between substrate and product peaks provides the activity of the enzyme in that well. This is best represented by a plate heat map which colors each well by percent inhibition as compared to positive and negative controls (no inhibitors and no ATP respectively).
# (§4) In the following Tables 3a-4-b, which show the results of the desktop profiler measurements, “+” means 50-70% inhibition, “++” means 70-90% inhibition, and “+++” means >90% inhibition. The enzymes tested for profiling were ABL, AKT1, AKT2, AurA, CHK1, CHK2, CK1d, Erk1, Erk2, FYN, GSK3b, INSR, LCK, LYN, MAPKAPK2, MET, MSK1, p38a, PKA, PKCz, PKD2, PRAK, RSK1 and SRC.
# [2] = target: T2, GSK3b (Homo sapiens, UniProt P49841); assay: Desktop Profiler kinase panel, GSK3b; assay type: biochemical; settings: 10 micromolar concentration of the compound; read-out: Percent Inhibition GSK3b
# T2 construct: purchased Caliper Life Sciences
# T2 sequence (P49841 whole entry, species assumed): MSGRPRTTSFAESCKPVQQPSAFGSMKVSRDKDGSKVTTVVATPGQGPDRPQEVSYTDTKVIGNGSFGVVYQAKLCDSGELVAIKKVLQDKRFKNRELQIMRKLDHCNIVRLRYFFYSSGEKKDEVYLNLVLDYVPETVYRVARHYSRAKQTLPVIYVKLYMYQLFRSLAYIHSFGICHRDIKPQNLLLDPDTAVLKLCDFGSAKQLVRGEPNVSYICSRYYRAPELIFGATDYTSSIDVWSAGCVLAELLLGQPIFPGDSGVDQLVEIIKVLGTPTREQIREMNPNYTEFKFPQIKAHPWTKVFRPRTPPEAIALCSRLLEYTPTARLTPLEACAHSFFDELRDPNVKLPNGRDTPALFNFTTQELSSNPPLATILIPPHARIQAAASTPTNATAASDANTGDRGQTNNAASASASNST
# Protocol: as §1, §2, §3, §4
# [3] = target: T3, RSK1 (Homo sapiens, UniProt Q15418); assay: Desktop Profiler kinase panel, RSK1; assay type: biochemical; settings: 10 micromolar concentration of the compound; read-out: Percent Inhibition RSK1
# T3 construct: purchased Caliper Life Sciences
# Protocol: as §1, §2, §3, §4
# [4] = target: T4, FYN (Homo sapiens, UniProt P06241); assay: Desktop Profiler kinase panel, FYN; assay type: biochemical; settings: for inhibition at 10 µM: 10 micromolar concentration of the compound, read-out: Percent Inhibition FYN; for inhibition at 1 µM: 1 micromolar concentration of the compound
# T4 construct: purchased Caliper Life Sciences
# T4 sequence (P06241 whole entry, species assumed): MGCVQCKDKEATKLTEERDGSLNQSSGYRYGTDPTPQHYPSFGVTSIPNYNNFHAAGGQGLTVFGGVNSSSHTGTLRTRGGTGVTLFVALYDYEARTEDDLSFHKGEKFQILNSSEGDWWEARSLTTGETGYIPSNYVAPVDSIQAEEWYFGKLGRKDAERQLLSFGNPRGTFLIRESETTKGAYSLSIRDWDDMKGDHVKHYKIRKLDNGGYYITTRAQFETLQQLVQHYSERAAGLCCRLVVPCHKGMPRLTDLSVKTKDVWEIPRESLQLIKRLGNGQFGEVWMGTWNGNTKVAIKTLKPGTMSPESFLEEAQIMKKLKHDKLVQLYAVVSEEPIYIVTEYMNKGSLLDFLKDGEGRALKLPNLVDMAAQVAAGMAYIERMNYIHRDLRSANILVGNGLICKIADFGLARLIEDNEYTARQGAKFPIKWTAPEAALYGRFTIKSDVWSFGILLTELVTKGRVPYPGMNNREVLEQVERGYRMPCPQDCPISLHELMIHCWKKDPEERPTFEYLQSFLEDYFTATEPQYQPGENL
# Protocol: as §1, §2, §3, §4
# [5] = target: T5, SRC (Homo sapiens, UniProt P12931); assay: Desktop Profiler kinase panel, SRC; assay type: biochemical; settings: for inhibition at 10 µM: 10 micromolar concentration of the compound, read-out: Percent Inhibition SRC; for inhibition at 1 µM: 1 micromolar concentration of the compound
# T5 construct: purchased Caliper Life Sciences
# T5 sequence (P12931 whole entry, species assumed): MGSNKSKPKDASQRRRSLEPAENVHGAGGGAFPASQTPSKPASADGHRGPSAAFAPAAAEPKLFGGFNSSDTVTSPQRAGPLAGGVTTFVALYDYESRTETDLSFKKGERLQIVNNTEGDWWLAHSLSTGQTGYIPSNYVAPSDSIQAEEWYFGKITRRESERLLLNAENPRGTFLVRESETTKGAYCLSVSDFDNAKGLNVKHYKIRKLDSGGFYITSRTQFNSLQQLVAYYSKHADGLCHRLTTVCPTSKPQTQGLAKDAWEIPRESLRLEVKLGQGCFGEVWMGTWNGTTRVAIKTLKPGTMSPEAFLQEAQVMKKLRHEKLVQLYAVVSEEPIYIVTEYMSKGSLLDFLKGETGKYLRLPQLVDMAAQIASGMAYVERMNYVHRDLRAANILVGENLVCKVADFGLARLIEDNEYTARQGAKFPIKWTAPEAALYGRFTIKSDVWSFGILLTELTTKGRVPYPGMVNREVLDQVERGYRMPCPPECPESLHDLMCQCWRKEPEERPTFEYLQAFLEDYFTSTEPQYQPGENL
# Protocol: as §1, §2, §3, §4
# [6] = target: T6, LYN (Homo sapiens, UniProt P07948); assay: Desktop Profiler kinase panel, LYN; assay type: biochemical; settings: for inhibition at 10 µM: 10 micromolar concentration of the compound, read-out: Percent Inhibition LYN; for inhibition at 1 µM: 1 micromolar concentration of the compound
# T6 construct: purchased Caliper Life Sciences
# T6 sequence (P07948 whole entry, species assumed): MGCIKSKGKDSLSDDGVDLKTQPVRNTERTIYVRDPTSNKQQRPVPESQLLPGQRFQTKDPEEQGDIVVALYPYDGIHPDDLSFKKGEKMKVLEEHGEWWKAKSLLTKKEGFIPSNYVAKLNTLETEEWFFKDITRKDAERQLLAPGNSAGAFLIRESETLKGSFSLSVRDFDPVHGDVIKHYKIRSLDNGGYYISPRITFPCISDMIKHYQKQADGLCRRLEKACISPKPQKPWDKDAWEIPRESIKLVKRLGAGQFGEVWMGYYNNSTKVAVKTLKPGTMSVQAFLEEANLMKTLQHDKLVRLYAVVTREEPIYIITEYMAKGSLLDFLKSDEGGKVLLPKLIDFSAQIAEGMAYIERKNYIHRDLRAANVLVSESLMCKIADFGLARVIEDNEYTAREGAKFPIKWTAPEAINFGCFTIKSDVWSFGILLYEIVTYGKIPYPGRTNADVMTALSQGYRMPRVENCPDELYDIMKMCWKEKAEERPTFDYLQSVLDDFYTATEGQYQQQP
# Protocol: as §1, §2, §3, §4
# [7] = target: T7, PKD2 (Homo sapiens, UniProt Q9BZL6); assay: Desktop Profiler kinase panel, PKD2; assay type: biochemical; settings: 10 micromolar concentration of the compound; read-out: Percent Inhibition PKD2
# T7 construct: purchased Caliper Life Sciences
# T7 sequence (Q9BZL6 1-878): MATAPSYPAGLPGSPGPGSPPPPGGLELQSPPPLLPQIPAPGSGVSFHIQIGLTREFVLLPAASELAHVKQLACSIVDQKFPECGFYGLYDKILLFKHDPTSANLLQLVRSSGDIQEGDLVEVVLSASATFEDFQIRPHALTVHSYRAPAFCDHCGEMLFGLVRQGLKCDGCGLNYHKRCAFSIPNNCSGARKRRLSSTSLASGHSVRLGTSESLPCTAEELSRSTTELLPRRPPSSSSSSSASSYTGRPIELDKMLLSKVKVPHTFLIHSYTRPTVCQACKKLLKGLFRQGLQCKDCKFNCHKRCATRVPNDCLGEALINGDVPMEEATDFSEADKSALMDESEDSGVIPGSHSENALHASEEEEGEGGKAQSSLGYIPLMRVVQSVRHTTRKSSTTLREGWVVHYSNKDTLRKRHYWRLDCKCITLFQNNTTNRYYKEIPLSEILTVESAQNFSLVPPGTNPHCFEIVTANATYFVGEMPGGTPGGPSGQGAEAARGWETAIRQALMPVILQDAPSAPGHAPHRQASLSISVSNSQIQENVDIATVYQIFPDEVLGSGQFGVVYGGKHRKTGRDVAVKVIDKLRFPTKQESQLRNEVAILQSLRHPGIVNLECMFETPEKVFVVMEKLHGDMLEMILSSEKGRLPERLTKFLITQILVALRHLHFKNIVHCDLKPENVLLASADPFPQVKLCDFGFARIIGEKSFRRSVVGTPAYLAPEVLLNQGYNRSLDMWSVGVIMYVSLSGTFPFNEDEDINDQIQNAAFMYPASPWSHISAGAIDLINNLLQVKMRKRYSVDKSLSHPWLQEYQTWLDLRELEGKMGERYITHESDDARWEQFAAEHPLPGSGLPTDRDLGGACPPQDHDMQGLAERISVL
# Protocol: as §1, §2, §3, §4
# [8] = target: T8, AurA (Homo sapiens, UniProt O14965); assay: Desktop Profiler kinase panel, AurA; assay type: biochemical; settings: for inhibition at 10 µM: 10 micromolar concentration of the compound, read-out: Percent Inhibition AurA; for inhibition at 1 µM: 1 micromolar concentration of the compound
# T8 construct: purchased Caliper Life Sciences
# T8 sequence (O14965 1-403): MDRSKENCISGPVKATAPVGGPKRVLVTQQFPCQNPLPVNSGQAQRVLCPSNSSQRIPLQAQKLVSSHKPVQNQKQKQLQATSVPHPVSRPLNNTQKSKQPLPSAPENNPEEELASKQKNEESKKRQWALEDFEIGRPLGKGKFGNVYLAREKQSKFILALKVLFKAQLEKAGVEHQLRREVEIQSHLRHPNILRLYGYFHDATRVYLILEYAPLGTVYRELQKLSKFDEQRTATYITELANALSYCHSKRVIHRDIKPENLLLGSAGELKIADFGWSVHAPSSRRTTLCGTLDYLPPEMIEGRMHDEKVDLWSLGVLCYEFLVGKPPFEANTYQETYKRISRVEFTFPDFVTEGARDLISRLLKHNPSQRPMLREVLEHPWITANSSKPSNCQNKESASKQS
# Protocol: as §1, §2, §3, §4
# [9] = target: T9, PKA (Homo sapiens, UniProt P17612); assay: Desktop Profiler kinase panel, PKA; assay type: biochemical; settings: 10 micromolar concentration of the compound; read-out: Percent Inhibition PKA
# T9 construct: purchased Caliper Life Sciences
# Protocol: as §1, §2, §3, §4
# [10] = target: T10, CK1d (Homo sapiens, UniProt P48730); assay: Desktop Profiler kinase panel, CK1d; assay type: biochemical; settings: for inhibition at 10 µM: 10 micromolar concentration of the compound, read-out: Percent Inhibition CK1d
# T10 construct: purchased Caliper Life Sciences
# T10 sequence (P48730 whole entry): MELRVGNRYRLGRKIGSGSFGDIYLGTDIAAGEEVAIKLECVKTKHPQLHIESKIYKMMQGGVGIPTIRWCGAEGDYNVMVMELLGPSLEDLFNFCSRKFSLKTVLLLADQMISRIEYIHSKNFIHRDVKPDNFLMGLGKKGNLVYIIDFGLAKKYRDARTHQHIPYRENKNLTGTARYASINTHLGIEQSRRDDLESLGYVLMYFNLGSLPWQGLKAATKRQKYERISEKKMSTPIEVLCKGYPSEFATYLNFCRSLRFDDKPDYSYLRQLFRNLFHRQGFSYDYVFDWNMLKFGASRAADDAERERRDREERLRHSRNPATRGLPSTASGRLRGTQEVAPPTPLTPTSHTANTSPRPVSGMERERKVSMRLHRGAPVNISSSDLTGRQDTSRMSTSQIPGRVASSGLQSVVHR
# Protocol: as §1, §2, §3, §4
# [11] = target: T11, LCK (Homo sapiens, UniProt P06239); assay: Desktop Profiler kinase panel, LCK; assay type: biochemical; settings: for inhibition at 10 µM: 10 micromolar concentration of the compound, read-out: Percent Inhibition LCK
# T11 construct: purchased Caliper Life Sciences
# T11 sequence (P06239 whole entry, species assumed): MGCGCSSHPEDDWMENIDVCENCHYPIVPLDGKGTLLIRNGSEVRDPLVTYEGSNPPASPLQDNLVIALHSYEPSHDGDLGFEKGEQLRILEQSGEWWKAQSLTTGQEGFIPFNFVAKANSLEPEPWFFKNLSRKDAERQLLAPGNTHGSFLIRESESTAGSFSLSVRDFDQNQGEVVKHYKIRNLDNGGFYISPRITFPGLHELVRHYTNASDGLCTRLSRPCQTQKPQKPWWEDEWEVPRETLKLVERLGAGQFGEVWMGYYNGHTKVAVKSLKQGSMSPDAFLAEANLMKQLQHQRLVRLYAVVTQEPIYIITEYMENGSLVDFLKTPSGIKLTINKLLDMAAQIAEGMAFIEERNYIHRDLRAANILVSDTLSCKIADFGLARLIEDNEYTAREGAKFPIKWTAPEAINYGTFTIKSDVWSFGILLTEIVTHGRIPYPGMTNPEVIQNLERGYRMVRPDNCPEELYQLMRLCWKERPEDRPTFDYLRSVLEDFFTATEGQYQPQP
# Protocol: as §1, §2, §3, §4
# [12] = target: T12, CHK2 (Homo sapiens, UniProt O96017); assay: Desktop Profiler kinase panel, CHK2; assay type: biochemical; settings: for inhibition at 1 µM: 1 micromolar concentration of the compound; for inhibition at 10 µM: 10 micromolar concentration of the compound, read-out: Percent Inhibition CHK2
# T12 construct: purchased Caliper Life Sciences
# T12 sequence (O96017 whole entry, species assumed): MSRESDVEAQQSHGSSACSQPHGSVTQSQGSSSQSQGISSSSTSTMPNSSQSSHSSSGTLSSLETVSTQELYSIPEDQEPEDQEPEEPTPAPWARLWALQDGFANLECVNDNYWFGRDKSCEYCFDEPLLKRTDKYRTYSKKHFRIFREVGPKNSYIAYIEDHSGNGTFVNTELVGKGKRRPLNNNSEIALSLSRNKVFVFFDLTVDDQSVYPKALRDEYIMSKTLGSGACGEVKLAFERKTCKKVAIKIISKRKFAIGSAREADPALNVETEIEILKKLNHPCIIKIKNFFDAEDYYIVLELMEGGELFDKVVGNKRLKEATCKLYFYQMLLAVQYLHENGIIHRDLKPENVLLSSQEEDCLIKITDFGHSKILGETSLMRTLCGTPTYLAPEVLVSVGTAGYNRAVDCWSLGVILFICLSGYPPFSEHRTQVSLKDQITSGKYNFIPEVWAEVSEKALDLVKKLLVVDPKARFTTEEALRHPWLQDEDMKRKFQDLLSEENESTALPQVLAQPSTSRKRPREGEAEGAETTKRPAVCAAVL
# Protocol: as §1, §2, §3, §4
# [13] = target: T13, GST-Aurora A (Homo sapiens, UniProt O14965); assay: Aurora A IC50, Caliper LC3000 mobility shift assay; assay type: biochemical; settings: LC3000 method; 15 uM ATP (the KM value); read-out: Aurora Kinase A Activity (IC50)
# T13 construct: N-terminal GST fusion with full length Aurora A (1-403 amino acids); purchased Carna Biosciences 05-101
# T13 sequence (O14965 1-403): T8 sequence (O14965 1-403)
# Method in brief: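 Readout: percent conversion of FITC-LRRASLG (1 uM) to phosphopeptide, resolved electrophoretically on a Caliper LC3000, fitted against inhibitor concentration for IC50. Reaction: N-terminal GST full-length Aurora A, ATP at its KM (15 uM), pH 7.5 HEPES with MgCl2/DTT, 25 C for 90 min.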
# [14] = system: leukemia, colon and pancreatic tumors; settings: variety of in vivo xenograft models; well-tolerated doses; cited from earlier work
# [15] = target: T14, p38a (Homo sapiens, UniProt Q16539); assay: Desktop Profiler kinase panel, p38a; assay type: biochemical; settings: 1 micromolar concentration of the compound
# T14 construct: purchased Caliper Life Sciences
# T14 sequence (Q16539 whole entry): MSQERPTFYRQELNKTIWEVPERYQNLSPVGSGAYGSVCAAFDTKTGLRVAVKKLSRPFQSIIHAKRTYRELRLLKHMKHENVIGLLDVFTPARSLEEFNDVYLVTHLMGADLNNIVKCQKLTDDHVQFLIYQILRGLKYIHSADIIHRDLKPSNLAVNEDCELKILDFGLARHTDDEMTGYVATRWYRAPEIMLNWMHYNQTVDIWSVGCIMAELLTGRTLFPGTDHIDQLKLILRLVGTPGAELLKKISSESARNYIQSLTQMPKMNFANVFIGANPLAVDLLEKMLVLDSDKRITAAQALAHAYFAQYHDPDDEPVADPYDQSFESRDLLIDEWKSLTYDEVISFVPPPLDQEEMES
# Protocol: as §1
# The Desktop Profiler utilizes the same principle as the LC3000 for calculating percentage conversion of a substrate to product. Caliper Life Sciences provides proprietary flash frozen pre-made 384 well plates containing selected kinases. Each column in the 384 well plate contains a particular selected kinase. A second plate, the ‘substrate plate’ contains a mix of fluorescently labeled peptide substrate and ATP. […]
# Reading of the plate in the Profiler is identical to the LC3000, and the ratio between substrate and product peaks provides the activity of the enzyme in that well. […]
# [16] = target: T15, AKT2 (Homo sapiens, UniProt P31751); assay: Desktop Profiler kinase panel, AKT2; assay type: biochemical; settings: 10 micromolar concentration of the compound; read-out: Percent Inhibition AKT2
# T15 construct: purchased Caliper Life Sciences
# Protocol: as §1, §2, §3, §4
# [17] = 1 micromolar concentration of the compound
# T1 sequence (P00519 whole entry, species assumed): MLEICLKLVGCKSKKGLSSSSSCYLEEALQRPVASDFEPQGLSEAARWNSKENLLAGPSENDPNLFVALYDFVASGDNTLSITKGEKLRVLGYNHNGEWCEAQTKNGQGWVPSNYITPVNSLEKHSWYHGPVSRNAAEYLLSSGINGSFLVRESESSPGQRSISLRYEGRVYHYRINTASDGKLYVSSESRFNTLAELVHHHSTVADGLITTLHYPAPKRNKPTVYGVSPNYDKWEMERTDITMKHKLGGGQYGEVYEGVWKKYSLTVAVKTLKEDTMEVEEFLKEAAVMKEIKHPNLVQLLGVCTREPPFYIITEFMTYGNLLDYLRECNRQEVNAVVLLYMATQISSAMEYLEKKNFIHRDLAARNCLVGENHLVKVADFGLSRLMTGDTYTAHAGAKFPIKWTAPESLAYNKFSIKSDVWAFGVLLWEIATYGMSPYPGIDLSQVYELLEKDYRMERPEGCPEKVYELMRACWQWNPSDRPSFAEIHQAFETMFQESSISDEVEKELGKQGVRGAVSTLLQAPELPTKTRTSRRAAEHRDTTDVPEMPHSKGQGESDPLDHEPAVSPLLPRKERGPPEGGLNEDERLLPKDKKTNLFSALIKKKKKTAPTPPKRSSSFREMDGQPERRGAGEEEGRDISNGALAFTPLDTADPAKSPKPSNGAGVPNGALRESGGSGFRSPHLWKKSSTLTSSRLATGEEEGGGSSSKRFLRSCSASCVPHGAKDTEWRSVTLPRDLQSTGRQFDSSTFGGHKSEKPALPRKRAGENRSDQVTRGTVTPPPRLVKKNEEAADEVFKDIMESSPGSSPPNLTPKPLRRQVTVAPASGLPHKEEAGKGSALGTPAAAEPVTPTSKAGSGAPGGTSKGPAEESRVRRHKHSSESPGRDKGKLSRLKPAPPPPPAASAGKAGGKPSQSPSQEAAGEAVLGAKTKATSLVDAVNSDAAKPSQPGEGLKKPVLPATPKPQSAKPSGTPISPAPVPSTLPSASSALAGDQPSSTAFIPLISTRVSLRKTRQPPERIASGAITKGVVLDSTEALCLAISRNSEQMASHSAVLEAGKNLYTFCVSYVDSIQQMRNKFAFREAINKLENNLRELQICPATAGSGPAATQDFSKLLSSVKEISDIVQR
Compound,inhibition at 10 µM [1] [%],inhibition at 10 µM [4] [%],inhibition at 10 µM [5] [%],inhibition at 10 µM [6] [%],inhibition at 10 µM [8] [%],inhibition at 10 µM [10] [%],inhibition at 1 µM [1] [%],inhibition at 1 µM [4] [%],inhibition at 1 µM [5] [%],inhibition at 10 µM [12] [%],inhibition at 1 µM [6] [%],inhibition at 1 µM [8] [%],further results
"Clc1ccc2c(Nc3cccc(Br)c3)nc3ncccc3c2c1 [Example 59, (3-Bromo-phenyl)-(9-chloro-benzo[c][1,8]naphthyridin-6-yl)-amine]",50 to 70,–,–,–,–,–,–,–,–,–,–,–,inhibition at 10 µM [2]: 50 to 70%
"Clc1nc2nccc(NCc3ccccc3)c2c2ccccc12 [Example 103, Benzyl-(6-chloro-benzo[c][1,8]naphthyridin-1-yl)-amine]",70 to 90,70 to 90,70 to 90,70 to 90,–,–,–,–,–,–,–,–,inhibition at 10 µM [3]: 50 to 70%
"COc1cccc(CNc2ccnc3[nH]c(=O)c4ccccc4c23)c1 [Example 98, 1-(3-Methoxy-benzylamino)-5H-benzo[c][1,8]naphthyridin-6-one]",–,50 to 70,–,50 to 70,50 to 70,–,–,–,–,–,–,–,inhibition at 10 µM [7]: 50 to 70%
"O=c1[nH]c2nccc(Cl)c2c2ccccc12 [Example 83, 1-Chloro-5H-benzo[c][1,8]naphthyridin-6-one]",–,–,–,–,–,50 to 70,–,–,–,–,–,–,inhibition at 10 µM [9]: 50 to 70%
"COc1ccc(Nc2ccnc3[nH]c(=O)c4ccccc4c23)cc1 [Example 113, 1-(4-Methoxy-phenylamino)-5H-benzo[c][1,8]naphthyridin-6-one]",70 to 90,–,70 to 90,> 90,70 to 90,–,50 to 70,70 to 90,70 to 90,70 to 90,70 to 90,50 to 70,"inhibition at 10 µM [9]: 50 to 70%; inhibition at 1 µM [11, 17]: 50 to 70%; inhibition at 10 µM [11]: 70 to 90%; inhibition at 1 µM [12]: 50 to 70%"
"O=C(Nc1ccc(Nc2ccnc3[nH]c(=O)c4ccccc4c23)cc1)c1ccccc1 [Example 120, N-[4-(6-Oxo-5,6-dihydro-benzo[c][1,8]naphthyridin-1-ylamino)-phenyl]-benzamide]",–,50 to 70,50 to 70,70 to 90,> 90,50 to 70,–,–,–,> 90,50 to 70,> 90,inhibition at 1 µM [12]: > 90%; IC50 [13]: < 11 nM
"COc1ccccc1Nc1ccnc2[nH]c(=O)c3ccccc3c12 [Example 114, 1-(2-Methoxy-phenylamino)-5H-benzo[c][1,8]naphthyridin-6-one]",> 90,50 to 70,> 90,> 90,> 90,–,70 to 90,70 to 90,70 to 90,50 to 70,70 to 90,70 to 90,inhibition at 10 µM [11]: 50 to 70%; IC50 [13]: > 100 nM
Cc1cc(Nc2cc(N3CCN(C)CC3)nc(Sc3ccc(NC(=O)C4CC4)cc3)n2)n[nH]1 [VX-680],–,–,–,–,–,–,–,–,–,–,–,–,inhibition of tumor growth [14]: profound inhibition of tumor growth
"O=c1[nH]c2nccc(NCc3ccccc3)c2c2ccccc12 [Example 96, 1-Benzylamino-5H-benzo[c][1,8]naphthyridin-6-one]",70 to 90,70 to 90,50 to 70,70 to 90,70 to 90,50 to 70,70 to 90,70 to 90,50 to 70,50 to 70,70 to 90,–,"inhibition at 10 µM [7]: 50 to 70%; inhibition at 1 µM [15]: 50 to 70%; inhibition at 10 µM [16]: 50 to 70%; inhibition at 1 µM [10, 17]: 50 to 70%; inhibition at 10 µM [2]: 50 to 70%"
